The source of these data is ChEMBL document CHEMBL1131488, “Dihydropyrancarboxamides related to zanamivir: a new series of inhibitors of influenza virus sialidases. 1. Discovery, synthesis, biological activity, and structure-activity relationships of 4-guanidino- and 4-amino-4H-pyran-6-carboxamides” (J Med Chem, 1998).

SMILES strings stand for the structures.

Data set [1] is described as follows: Clp, plasma clearance at a dose of 10 mg/kg. The class given is ADME, organism-based. Details: dose 10 mg/kg. The note with it: read-out: Clp.
Data set [2] concerns Influenza A virus. The experiment in a line: Compound was tested for in vivo efficacy in mouse model of influenza A virus A/Singapore/1/57 at dose of 10 mg/kg. (in). The class given is functional.
A short description of data set [3]: t1/2, plasma elimination half life, the time taken for the plasma concentrations to fall by one half, once distribution is complete at a dose of 10 mg/kg. It counts as ADME, organism-based. Details: dose 10 mg/kg.
The test system of data set [4] is Influenza A virus. The experiment in a line: Compound was tested for concentration of intranasally administered (in) (10 mg/kg) which reduces virus titer by 90%. It counts as functional. The note with it: inhaled or nasal.
Data set [5] can be described thus: Vss, volume of distribution at steady state at a dose of 10 mg/kg. The class given is ADME, organism-based. The note with it: in vivo, read-out: Vss. Details: dose 10 mg/kg.
The test system of data set [6] is Influenza A virus. As to the kind of experiment: Compound was tested for in vivo efficacy in mouse model of influenza A virus A/Singapore/1/57 at dose of 100 mg/kg. (i.p.). The note with it: route intraperitoneal. The class given is functional.
Data set [7] has as its target T1, Neuraminidase (Influenza B virus (strain B/Lee/1940), UniProt P03474). The experiment in a line: Inhibition of influenza B virus sialidase activity.
Data set [8] concerns Mus musculus. The experiment in a line: Compound was tested for in vivo efficacy in mouse model of influenza A virus A/Singapore/1/57 at dose of 50 mg/kg.(ip). It counts as functional.
Data set [9] addresses Neuraminidase (Influenza A virus (A/Puerto Rico/8/1934(H1N1)), UniProt P03468). As to the kind of experiment: Inhibition of influenza A virus sialidase activity.
Data set [10] deals with Mus musculus. The experiment in a line: Compound was tested for in vivo efficacy in mouse model of influenza A virus A/Singapore/1/57 at dose of 10 mg/kg.(ip). It counts as functional.
In data set [11] the test system is Mus musculus. The experiment in a line: Compound was tested for in vivo efficacy in mouse model of influenza A virus A/Singapore/1/57 at dose of 1 mg/kg. (in). It counts as functional.
For data set [12], the target named is T1, Neuraminidase. As to the kind of experiment: Inhibitory activity against sialidase (influenza B virus by plaque reduction assay).
For data set [13], the target named is T1, Neuraminidase. The experiment in a line: Inhibitory activity against sialidase of influenza B virus by plaque reduction assay.

T1 sequence (P03474 whole entry): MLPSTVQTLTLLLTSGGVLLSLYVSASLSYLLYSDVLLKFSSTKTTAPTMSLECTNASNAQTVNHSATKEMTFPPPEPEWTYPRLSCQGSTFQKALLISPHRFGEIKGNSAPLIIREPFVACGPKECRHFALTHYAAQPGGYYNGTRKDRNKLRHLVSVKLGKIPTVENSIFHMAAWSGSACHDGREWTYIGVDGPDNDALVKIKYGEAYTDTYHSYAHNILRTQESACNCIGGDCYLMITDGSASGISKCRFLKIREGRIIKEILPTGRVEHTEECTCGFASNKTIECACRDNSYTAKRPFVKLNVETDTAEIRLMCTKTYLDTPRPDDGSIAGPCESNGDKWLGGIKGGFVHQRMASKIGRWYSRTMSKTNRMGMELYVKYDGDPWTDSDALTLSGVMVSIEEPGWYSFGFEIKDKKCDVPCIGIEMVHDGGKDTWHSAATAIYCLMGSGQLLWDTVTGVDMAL
Sequence of Neuraminidase (Influenza A virus (A/Puerto Rico/8/1934(H1N1)), UniProt P03468) (P03468 whole entry): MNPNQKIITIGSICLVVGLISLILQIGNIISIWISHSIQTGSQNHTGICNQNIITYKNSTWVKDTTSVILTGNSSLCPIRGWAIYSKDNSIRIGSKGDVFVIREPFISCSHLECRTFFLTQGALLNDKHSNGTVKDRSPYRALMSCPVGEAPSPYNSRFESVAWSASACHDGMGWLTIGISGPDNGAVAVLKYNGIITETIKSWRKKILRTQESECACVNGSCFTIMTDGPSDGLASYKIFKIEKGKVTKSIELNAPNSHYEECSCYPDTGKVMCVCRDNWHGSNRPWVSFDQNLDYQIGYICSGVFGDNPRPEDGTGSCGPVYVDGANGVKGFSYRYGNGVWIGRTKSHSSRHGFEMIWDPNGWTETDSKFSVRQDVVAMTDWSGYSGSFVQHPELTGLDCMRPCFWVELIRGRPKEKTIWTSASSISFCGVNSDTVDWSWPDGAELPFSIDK

With `CCCCCCCCCN(CCC)C(=O)[C@@H]1OC(C(=O)O)=C[C@H](N)[C@H]1NC(C)=O`, the clearance in data set [1] is 17.9 mL/min/kg. In addition, the “Reduction in virus titer” value in data set [2] was 96%; in [6] it was 71%. This molecule also showed a half-life in data set [3] of 52.2 min. The molecule also registered an ED90 in data set [4] of over 1 mg/kg. Also, the Vd in data set [5] amounted to 1.3 L/kg.
On to `CCCCCCCCCN(CCC)C(=O)[C@@H]1OC(C(=O)O)=C[C@H](N=C(N)N)[C@H]1NC(C)=O`, for which the clearance in data set [1] stood at 21.8 mL/min/kg. Besides, in data set [3], the half-life was 55.2 min. Besides, the IC50 in data set [7] is over 3000 nM; in data set [9], 7 nM. In addition, the “Reduction in virus titer” value in [8] is 50%; in data set [10], over 99.99%; in data set [11] it was 72%. The Vd in data set [5] was 1.2 L/kg.
Take `CC(=O)N[C@@H]1[C@@H](N)C=C(C(=O)O)O[C@H]1C(=O)N1CCCC1`: the IC50 in [12] was over 100 µg/mL; in [9], 2900 nM.
`CC(=O)N[C@@H]1[C@@H](N)C=C(C(=O)O)O[C@H]1C(=O)NCCc1ccccc1`: the IC50 in [13] was over 100 µg/mL.

The half-life is the time needed for the level to fall by half in the phase considered. As a reminder, the IC50 is the concentration that gives 50% inhibition. Read a low IC50 as inhibition by little substance.
